Patent publication US20110287948A1, “MEASUREMENT OF MATERIAL PROPERTIES AND RELATED METHODS AND COMPOSITIONS BASED ON CYTOADHERENCE” (Massachusetts Institute of Technology, priority 2010, published 2011)
Entries after “also recorded” stand apart in the source; their conditions may differ.

Key:
[1] = test system: P. falciparum-infected RBCs (iRBCs) and co-cultured uninfected RBCs (uRBCs); assay: Microfluidic deformability cytometer: RBC mobility after artesunate drug treatment; format: cell-based, human; conditions: for separation resolution between iRBCs and uRBCs after drug treatment: after artesunate treatment vs untreated
From the text: The device used in this example comprises a series of equally spaced triangular pillar arrays with pore sizes ranging from 2.5 to 4 um (FIG. 55A illustrates the case of 3 um pore size). Compared to the diameter of an average RBC (˜7.5 um), the smaller pore sizes are designed to impose similar mechanical constraints on the cells as if they are passing through blood capillaries and splenic meshwork. Driven by constant pressure gradient in the sub-Pascal-per-micrometer range, RBCs are able to deform substantially at each constriction and traverse along the channel. The dynamic deformability of RBCs is then characterized by their mobility: the ability to deform repeatedly in order to pass through multiple constrictions in series.
FIG. 55A depicts an experimental schematic of the microfluidic system. A heating chamber (Olympus) was mounted to the inverted microscope stage. Four heaters for the inner water bath, microscope stage, chamber top, and lens were designed to accurately control the ambient temperature inside the chamber. The PDMS-glass bonded device consists of the inlet and outlet reservoirs and main channels with triangular pillar arrays. It was placed inside the heating chamber with only the inlet reservoir connecting to an external syringe via a 20 cm-tubing. The reservoirs were 500×500 μm^2 squares with 20 μm-interspacing cylindrical pillar arrays; these pillar arrays could pre-filter white blood cells from whole blood, allowing only RBCs to pass through the main channels. Each of the parallel channels was 10 pillars wide and 200 pillars long. Along the flow direction, the inter-pillar spacing was 10 μm. This spacing allows deformed cells to recover and ready for subsequent deformations. Perpendicular to the flow direction, the pore size varied from 2.5 to 4 μm for different channels. Cells experience different levels of deformation when passing through these pores.
FIG. 55B presents microscopic screenshots illustrating both iRBCs and co-cultured uRBCs moving in the microchannel at different temperature conditions. The uninfected cells appear as dark shadows indicated by blue arrows, and the infected cells with thiazole orange (TO) staining appear as bright dots indicated by white arrows. The mobility of individual cells can then be derived by recording the time period for each cell passing through 10 constrictions in series (i.e. equivalent to 200 μm distance travelled). In this example, cell mobility is used to characterize the dynamic deformability of individual RBCs.
The deformability of both iRBCs and uRBCs were measured at 2, 4 and 6 hours after artesunate drug treatment (FIG. 60). A synchronized culture of rings with ˜15% parasitemia was resuspended at 0.1% hematocrit in malaria culture medium containing 0.01, 0.05 or 0.1 μg/ml of artesunate.
Layout program CleWin3.0 was used to design the microfluidic device, which consists of a 500×500 μm^2 inlet reservoir, a 500×500 μm^2 outlet reservoir, and parallel capillary channels with triangular pillar arrays (FIG. 55A). Three different pore-size of 2.5, 3.0 and 4.0 μm were designed for the capillary channels to test optimum deformation condition for the experiment. A silicon mold of the device was made using standard silicon processing techniques. The photolithography step was done using a 5× reduction step-and-repeat projection stepper (Nikon NSR2005i9, Nikon Prevision) and reactive-ion etching (RIE) techniques were used to give the mold a final depth of 4.2 μm. Final device was then casted from the silicon mold using polydimethylsiloxane (PDMS) and was sealed by a glass slide using oxygen plasma.
P. falciparum 3D7A parasites (from Malaria Research and Reference Reagent Source, American Type Culture Collection) were cultured in leukocyte-free human RBCs (Research Blood Components, Brighton Mass.) in RPMI 1640 complete medium as described (Trager and Jensen J. parasitol. 2005). […]

RBCs = assay: Deformability cytometer: velocity of glutaraldehyde-treated RBCs through constrictions; format: cell-based, human
From the text: The device design includes periodically spaced, triangle-shaped pillars and the gaps between these pillars result in well-controlled constrictions for RBCs to pass. The height of the device was set to 4.2 μm. RBCs were forced to assume a flat orientation before entering each constriction. This height, in addition to filters at the reservoirs, prevented white blood cells from entering the device, and permitted diluted whole blood to be used directly.
A mold of the device was made on a silicon wafer using photolithography and reactive-ion etching techniques. A 5× reduction step-and-repeat projection stepper (Nikon NSR2005i9, Nikon Precision) was used for patterning. The spacing between pillars was 3 μm, and the depth of the device was 4.2 μm. The device was made using standard PDMS casting protocols and bonded to a glass slide.
In experiments involving blood, 1 μl of whole blood (−50% hematocrit) was diluted in 100 μl of the PBS-pluronic-BSA solution for all of the experiments. In experiments involving parasites that express GFP, no further treatment was performed. In experiments involving healthy RBCs, 1 μl of whole blood (Research Blood Components, Brighton, Mass.), 1 μl of 50 μg/ml of Cell Tracker Orange (Invitrogen, Carlsbad, Calif.), and 98 μl of PBS were mixed with the indicated concentration of glutaraldehyde and allowed to sit for 30 minutes. The sample was then washed 3 times with the PBS-Pluronic-BSA solution. In experiments involving reticulocytes, 1 μl of whole blood, 89 μl of the PBS-Pluronic-BSA solution, and 10 μl of 1×10^−6M thiazole orange were mixed and allowed to sit for 20 minutes before starting experiments. Videos were obtained in which reticulocytes appear as uniformly fluorescent cells under the GFP filter set, while mature RBCs appear as shadows.
The PBS-Pluronic-BSA solution was pumped through the device for 30 minutes to coat the device walls with Pluronic and BSA. The RBC-PBS-Pluronic-BSA suspension was then injected into the device. Differences in pressure between the two reservoirs were generated hydrostatically by a difference in water column height. […]

| Structure (SMILES) | mobility decrease at earlier time points ([1]; 2 and 4 hours after artesunate treatment) | mobility decrease ([1]; 6 hours after artesunate treatment, 0.01, 0.05 or 0.1 μg/ml, iRBCs and uRBCs) | dose dependence of mobility changes ([1]; after 4 hour drug treatment, dosage range 0.01 to 0.1 μg/ml) | separation resolution between iRBCs and uRBCs after drug treatment [1] | separation resolution between iRBCs and uRBCs after drug treatment ([1]; listed as Artesunate) | effect on RBC deformability (stiffening) ([1]; iRBCs and uRBCs after artesunate treatment) | passage of RBCs into the channel (RBCs; glutaraldehyde concentrations greater than 0.003%) | RBCs that passed through the channels (RBCs; glutaraldehyde less than 0.002%, treatment for 30 minutes) | RBC stiffness / velocity with increasing concentration (RBCs; increasing glutaraldehyde concentration, 30 minutes, approx. 0.61 Pa/μm) |
| --- | --- | --- | --- | --- | --- | --- | --- | --- | --- |
| C[C@H]1[C@H](OC(=O)CCC(=O)O)O[C@@H]2O[C@@]3(C)CC[C@H]4[C@H](C)CC[C@@H]1[C@@]24OO3 [artesunate] | smaller and less pronounced mobility decrease | 30%-50 | no statistically significant dose dependence | almost doubled | doubled | stiffening effect on both iRBCs and uRBCs; also recorded: the drop in iRBC deformability is more precipitous than in uRBC | – | – | – |
| O=CCCCC=O [glutaraldehyde] | – | – | – | – | – | – | most RBCs were held up at the entrance to the channel, unable to deform | more than 95% | progressively stiffer with decreasing velocity |
